# Measured values as given in ChEMBL document CHEMBL1158227, “Effect of Polygonum hydropiper sulfated flavonoids on lens aldose reductase and related enzymes” (J Nat Prod, 1996).
# The source made the active and inactive calls. The calls are words filed in the database; no cut-off is given here.
# Tests used:
# [1] = Inhibition of bovine liver NADH oxidase; parameters: species or system Bos taurus
# [2] = Inhibition of pig kidney aldehyde reductase by spectrophotometry; parameters: species or system Sus scrofa
# [3] = target: Aldo-keto reductase family 1 member B1 (Sus scrofa, UniProt P80276); experiment: Inhibition of pig lens aldose reductase by spectrophotometry
# [4] = target: Aldo-keto reductase family 1 member B1 (Sus scrofa) (UniProt P80276); experiment: Inhibition of pig lens aldose reductase at 1.8 uM by Lineweaver-Burke plot
# [5] = target: Aldo-keto reductase family 1 member B1 (Sus scrofa) (UniProt P80276); experiment: Inhibition of pig lens aldose reductase at 0.54 uM by Lineweaver-Burke plot
SMILES,IC50 [1] [µM],IC50 [2] [µM],IC50 [3] [µM],Activity [4],Activity [5]
COc1cc(O)c2c(=O)c(OS(=O)(=O)O)c(-c3ccc(O)c(OC)c3)oc2c1,> 67,43.5,30.1,–,–
COc1ccc(-c2oc3cc(OS(=O)(=O)O)cc(O)c3c(=O)c2O[C@@H]2O[C@H](CO)[C@@H](O)[C@H](O)[C@H]2O)cc1O,> 50,> 50,5,–,–
O=c1c(OS(=O)(=O)O)c(-c2ccc(O)c(O)c2)oc2cc(O)cc(O)c12,> 71,55.6,50.9,–,–
COc1cc(-c2oc3cc(OS(=O)(=O)O)cc(O)c3c(=O)c2OS(=O)(=O)O)ccc1O,> 54,49.5,1.8,Active,Active
O=c1c(O[C@@H]2O[C@H](CO)[C@@H](O)[C@H](O)[C@H]2O)c(-c2ccc(O)c(O)c2)oc2cc(O)cc(O)c12 [ISOQUERCETIN],> 64,> 64,16,–,–
COc1cc(-c2oc3cc(O)cc(O)c3c(=O)c2O)ccc1O [ISORHAMNETIN],88.6,> 95,> 95,–,–
COc1cc(-c2oc3cc(O)cc(O)c3c(=O)c2OS(=O)(=O)O)ccc1O [PERSICARIN],> 69,> 69,69,–,–
O=c1c(O)c(-c2ccc(O)c(O)c2)oc2cc(O)cc(O)c12 [QUERCETIN],65.3,> 91,50.1,–,–
COc1cc(O)c2c(=O)c(O)c(-c3ccc(O)c(OC)c3)oc2c1 [RHAMNAZIN],> 91,> 91,> 91,–,–
